According to patent publication US11590129B2, “Combination therapy with an antitumor alkaloid” (PHARMA MAR, S.A., priority 2010, dated 2023):

System: A2780 tumors
Experiment: Human ovarian tumor xenografts (A2780) in athymic nude mice, tumor volume % T/C
Assay type: in vivo
Protocol: Female athymic nude mice (Harlan Laboratories Models, S.L. (Barcelona, Spain) were utilized for all experiments. Animals were housed in individually ventilated cages, up to ten per cage in a 12-hour light-dark cycle at 21-23° C. and 40-60% humidity. The mice were allowed free access to irradiated standard rodent diet and sterilized water. Animals were acclimated for at least 5 days prior to tumor implantation with a tumor cell suspension.
The formula to calculate volume for a prolate ellipsoid was used to estimate tumor volume (mm^3) from 2-dimensional tumor measurements: Tumor volume (mm^3)=[L×W^2]÷2, where L is the length and it is the longest diameter in mm, and W is the width and it is the shortest diameter in mm of a tumor. Assuming unit density, volume was converted to weight (i.e., 1 mm^3=1 mg). Tumor volume and animal body weights were measured 2-3 times per week starting form the first day of treatment (Day 0).
PM01183 was provided in the form of vials of lyophilized PM01183 cake which was reconstituted with water for infusion to a concentration of 0.2 mg/mL. The PM01183 stock solution was further diluted in 5% glucose solution for injection to the dosing formulation concentrations. […] Vinorelbine was provided as a solution prepared by diluting the product with 0.9% saline solution.
Dose level groups were administered either as single agents or in combination.
Comparison of the median tumor volume in the treatment groups (T) to the median tumor volume in the control group (T/C×100%) was used for evaluation of the antitumor efficacy.
Day 9 for PM01183 and vinorelbine study) using the median-effect principle (Chou T. C. Pharmacol. Rev.

[1] = PM01183 0.045 mg/kg iv days 0,7, doxorubicin study
[2] = PM01183 0.045 mg/kg iv days 0,7, paclitaxel study
[3] = PM01183 0.045 mg/kg iv days 0,7, vinorelbine study
[4] = PM01183 0.09 mg/kg iv days 0,7, doxorubicin study
[5] = PM01183 0.09 mg/kg iv days 0,7, paclitaxel study
[6] = PM01183 0.09 mg/kg iv days 0,7, vinorelbine study
[7] = PM01183 0.135 mg/kg iv days 0,7, doxorubicin study
[8] = PM01183 0.135 mg/kg iv days 0,7, paclitaxel study
[9] = PM01183 0.135 mg/kg iv days 0,7, vinorelbine study
[10] = PM01183 0.18 mg/kg iv days 0,7, doxorubicin study
[11] = PM01183 0.18 mg/kg iv days 0,7, paclitaxel study

## COc1ccc2[nH]c3c(c2c1)CCN[C@]31CS[C@@H]2c3c(OC(C)=O)c(C)c4c(c3[C@H](COC1=O)N1[C@@H]2[C@H]2c3c(cc(C)c(OC)c3O)C[C@@H]([C@@H]1O)N2C)OCO4 [PM01183]
[1]
  % T/C on day 0: 100.1%
  % T/C on day 3: 98.2%
  % T/C on day 5: 98.6%
  % T/C on day 7: 97.7%
  % T/C on day 10: 90.0%
[2]
  % T/C on day 0: 94.0%
  % T/C on day 3: 91.1%
  % T/C on day 5: 99.6%
  % T/C on day 7: 88.0%
  % T/C on day 10: 73.1%
[3]
  % T/C on day 0: 97.8%
  % T/C on day 2: 107.5%
  % T/C on day 5: 93.6%
  % T/C on day 7: 92.5%
  % T/C on day 9: 97.1%
[4]
  % T/C on day 0: 100.2%
  % T/C on day 3: 93.3%
  % T/C on day 5: 95.2%
  % T/C on day 7: 93.5%
  % T/C on day 10: 87.7%
[5]
  % T/C on day 0: 94.2%
  % T/C on day 3: 88.5%
  % T/C on day 5: 114.1%
  % T/C on day 7: 103.3%
  % T/C on day 10: 88.0%
[6]
  % T/C on day 0: 98.0%
  % T/C on day 2: 88.6%
  % T/C on day 5: 61.2%
  % T/C on day 7: 87.6%
  % T/C on day 9: 94.5%
[7]
  % T/C on day 0: 102.2%
  % T/C on day 3: 82.4%
  % T/C on day 5: 86.6%
  % T/C on day 7: 89.2%
  % T/C on day 10: 82.4%
[8]
  % T/C on day 0: 101.2%
  % T/C on day 3: 89.9%
  % T/C on day 5: 99.8%
  % T/C on day 7: 84.5%
  % T/C on day 10: 61.2%
[9]
  % T/C on day 0: 98.3%
  % T/C on day 2: 105.3%
  % T/C on day 5: 77.2%
  % T/C on day 7: 79.1%
  % T/C on day 9: 78.7%
[10]
  % T/C on day 0: 100.9%
  % T/C on day 3: 70.2%
  % T/C on day 5: 68.5%
  % T/C on day 7: 69.3%
  % T/C on day 10: 62.1%
[11]
  % T/C on day 0: 101.6%
  % T/C on day 3: 68.9%
  % T/C on day 5: 83.1%
  % T/C on day 7: 69.1%
